Legend:
Assay in all cases: relative viability (nuclei count vs DMSO), 5 days (fraction); higher = more cells survive
Omipalisib + Luminespib = compound: COc1ncc(-c2ccc3nccc(-c4ccnnc4)c3c2)cc1NS(=O)(=O)c1ccc(F)cc1F [Omipalisib] + CCNC(=O)c1noc(-c2cc(C(C)C)c(O)cc2O)c1-c1ccc(CN2CCOCC2)cc1 [Luminespib] (partner 0.01 µM)
Procedure, shortened: (§1)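 Lung cancer cell lines, seeded in 1536-well plates, were treated the following day by pin tool with a single drug or with five library-drug doses (not always all listed) in √10 steps on top of a fixed anchor-drug dose. Cells were fixed and nuclei stained in one step after 5 days, and nuclei were counted. Relative viability is the nuclei count for treated wells divided by that for vehicle wells, reported as medians of duplicate plates.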

Omipalisib + Alpelisib = compound: COc1ncc(-c2ccc3nccc(-c4ccnnc4)c3c2)cc1NS(=O)(=O)c1ccc(F)cc1F [Omipalisib] + Cc1nc(NC(=O)N2CCC[C@H]2C(N)=O)sc1-c1ccnc(C(C)(C)C(F)(F)F)c1 [Alpelisib] (partner 2 µM)
Procedure, shortened: as §1

Omipalisib + OSI-027 = compound: COc1ncc(-c2ccc3nccc(-c4ccnnc4)c3c2)cc1NS(=O)(=O)c1ccc(F)cc1F [Omipalisib] + COc1cccc2cc(-c3nc([C@H]4CC[C@H](C(=O)O)CC4)n4ncnc(N)c34)[nH]c12 [OSI-027] (partner 0.5 µM)
Procedure, shortened: as §1

Cell Line | relative viability (Omipalisib + Luminespib; first compound 0.0003 µM) | relative viability (Omipalisib + Luminespib; first compound 0.003 µM) | relative viability (Omipalisib + Luminespib; first compound 0.03 µM) | relative viability (Omipalisib + Alpelisib; first compound 0.0003 µM) | relative viability (Omipalisib + Alpelisib; first compound 0.003 µM) | relative viability (Omipalisib + Alpelisib; first compound 0.03 µM) | relative viability (Omipalisib + OSI-027; first compound 0.0003 µM) | relative viability (Omipalisib + OSI-027; first compound 0.003 µM) | relative viability (Omipalisib + OSI-027; first compound 0.03 µM)
201T | 0.95 | 1.05 | 0.463 | 1.02 | 0.999 | 0.735 | 0.786 | 0.494 | 0.398
A-427 | 0.857 | 0.678 | 0.863 | 1.1 | 0.993 | 1.03 | 0.48 | 0.281 | 0.377
ABC-1 | 0.688 | 0.362 | 0.484 | 0.734 | 0.879 | 0.677 | 0.518 | 0.382 | 0.283
BEN | 0.274 | 0.276 | 0.288 | 0.781 | 0.58 | 0.585 | 0.311 | 0.271 | 0.291
CAL-12T | 0.319 | 0.194 | 0.107 | 0.989 | 0.95 | 0.774 | 0.753 | 0.404 | 0.232
COR-L23 | 0.616 | 0.608 | 0.277 | 0.879 | 0.801 | 0.431 | 0.786 | 0.59 | 0.483
COR-L 105 | 0.703 | 0.796 | 0.591 | 0.944 | 0.837 | 0.601 | 0.767 | 0.549 | 0.328
ChaGo-K-1 | 0.615 | 0.593 | 0.503 |  |  |  | 0.557 | 0.374 | 0.421
EKVX | 0.859 | 0.717 | 0.423 | 0.85 | 0.72 | 0.397 | 0.612 | 0.371 | 0.256
EMC-BAC-2 | 1.07 | 0.711 | 0.58 | 0.759 | 0.663 | 0.505 | 0.347 | 0.266 | 0.239
EPLC-272H | 0.191 | 0.176 | 0.156 | 0.883 | 0.794 | 0.477 | 0.286 | 0.29 | 0.217
H3255 | 0.942 | 0.786 | 0.613 | 0.714 | 0.606 | 0.444 | 0.546 | 0.45 | 0.299
HARA | 0.605 | 0.621 | 0.0924 | 0.769 | 0.704 | 0.434 | 0.47 | 0.19 | 0.161
HCC-15 | 0.331 | 0.383 | 0.206 | 0.922 | 0.73 | 0.789 | 0.628 | 0.357 | 0.413
HCC-44 | 1.08 | 1.09 | 0.295 | 0.742 | 0.619 | 0.29 | 0.524 | 0.344 | 0.338
HCC-78 |  |  |  | 0.297 | 0.296 | 0.193 | 0.37 | 0.35 | 0.288
HCC-366 |  |  |  | 0.352 | 0.182 | 0.103 | 1.18 | 0.35 | 0.203
HCC-827 | 0.588 | 0.302 | 0.194 | 1.06 | 0.943 | 0.389 | 0.769 | 0.531 | 0.254

Source: the supplement of paper PMC10307832
